In brackets after ≈: the same amount, converted by molar mass.

Here are results for twelve compounds from ChEMBL document CHEMBL3045720, “Synthesis and antifungal activity of 2-chloromethyl-1H-benzimidazole derivatives against phytopathogenic fungi in vitro” (J Agric Food Chem, 2013).

Assay [1] deals with Fusarium solani. Kind of assay: Antifungal activity against Fusarium solani assessed as inhibition of mycelium growth at 100 ug/ml […]. The note with it: 168 h, read-out: GI. Type of assay: functional.
For assay [2], the system named is Colletotrichum gloeosporioides. Kind of assay: Antifungal activity against Colletotrichum gloeosporioides assessed as inhibition of mycelium growth at 100 ug/ml after 3 to 4 days. The note with it: 72 to 96 h, read-out: GI.
The subject of assay [3] is Cytospora. Kind of assay: Antifungal activity against Cytospora sp. assessed as inhibition of mycelium growth at 100 ug/ml after 3 to 4 days. The note with it: 72 to 96 h, read-out: GI.
Assay [4] relates to Colletotrichum gloeosporioides. Nature of the assay: Antifungal activity against Colletotrichum gloeosporioides assessed as inhibition of mycelium growth […]. The assay is classed as functional, organism-based.
Assay [5] has as its system Fusarium solani. Nature of the assay: Antifungal activity against Fusarium solani assessed as inhibition of mycelium growth after 1 week. Type of assay: functional, organism-based.
Assay [6] concerns Cytospora. Kind of assay: Antifungal activity against Cytospora sp. assessed as […]. The assay is classed as functional, organism-based.
Assay [7] deals with Alternaria solani. Nature of the assay: Antifungal activity against Alternaria solani assessed as inhibition of mycelium growth at 100 ug/ml […]. The assay is classed as functional. To be noted: 168 h, read-out: GI.
For assay [8], the system named is Botrytis cinerea. Kind of assay: Antifungal activity against Botryotinia fuckeliana assessed as inhibition of mycelium growth at 100 ug/ml […]. Type of assay: functional. To be noted: 168 h, read-out: GI.
Assay [9] relates to Botrytis cinerea. Kind of assay: Antifungal activity against Botryotinia fuckeliana assessed as inhibition of mycelium growth after 1 week. The assay is classed as functional, organism-based. To be noted: 168 h.
In assay [10] the test system is Alternaria solani. Kind of assay: Antifungal activity against Alternaria solani assessed as inhibition of mycelium growth after 1 week. Type of assay: functional, organism-based.
The mark [11] stands for this setting: Colletotrichum gloeosporioides, read-out: IC50.
The mark [12] stands for this setting: Fusarium solani, 168 h, read-out: IC50.
Setting [13] is: Cytospora, 168 h, read-out: IC50.
[14] abbreviates: Alternaria solani, 168 h, read-out: IC50.

With `Cn1c(COc2ccc3c(c2)OCO3)nc2ccccc21`, the inhibition of growth at 100 µg/mL in the assay with Fusarium solani [1] was 74.5%; in assay [2], 81%; in the assay on Cytospora [3] it was 80.6%; with Alternaria solani [7], 64%; in the assay on Botrytis cinerea [8], 88.3%. Moreover, the IC50 in [4] (setting [11]) is 55.7 µg/mL (≈ 197 µM); with Fusarium solani [5] (setting [12]) it was 73 µg/mL (≈ 258 µM); in the assay on Cytospora [6] (setting [13]), 54.3 µg/mL (≈ 192 µM); in the assay on Botrytis cinerea [9] it was 63.7 µg/mL (≈ 226 µM); in the assay on Alternaria solani [10] (setting [14]), greater than 100 µg/mL.
As to `CC(=O)c1ccccc1OCc1nc2ccccc2n1C`, the inhibition of growth at 100 µg/mL in the assay with Fusarium solani [1] was determined as 64.7%; in assay [2] it was 71.4%; with Cytospora [3], 64.5%; in the assay with Alternaria solani [7], 65.5%; in the assay on Botrytis cinerea [8] it was 64.9%. Moreover, the half-maximal inhibitory concentration (IC50) in assay [4] (setting [11]) was 70.6 µg/mL (≈ 252 µM); with Fusarium solani [5] (setting [12]), greater than 100 µg/mL; in the assay with Cytospora [6] (setting [13]), greater than 100 µg/mL; in the assay on Botrytis cinerea [9] it was greater than 100 µg/mL; in the assay with Alternaria solani [10] (setting [14]), greater than 100 µg/mL.
Consider `Cn1c(COc2ccc(Cl)cc2)nc2cc([N+](=O)[O-])ccc21`, for which the inhibition of growth at 100 µg/mL in the assay with Fusarium solani [1] was less than 5%; in assay [2], 6.35%; in the assay on Cytospora [3], 10.2%; in the assay on Alternaria solani [7], 30.2%; in the assay on Botrytis cinerea [8] it was 100%. The half-maximal inhibitory concentration (IC50) result was “Not Active” in assay [4]; “Not Active” in the assay with Fusarium solani [5]; “Not Active” with Cytospora [6]; 13.4 µg/mL (≈ 42 µM) in the assay with Botrytis cinerea [9]; “Not Active” in the assay with Alternaria solani [10].
On to `Cn1c(COc2ccc3c(c2)OCO3)nc2cc([N+](=O)[O-])ccc21`, for which the inhibition of growth at 100 µg/mL with Fusarium solani [1] is 34.8%; in assay [2], less than 5%; in the assay with Cytospora [3], 12.4%; in the assay with Alternaria solani [7] it was 7.22%; in the assay with Botrytis cinerea [8], 91.2%. The 50% inhibitory concentration (IC50) entry in [4] is “Not Active”; in the assay on Fusarium solani [5], “Not Active”; in the assay with Cytospora [6] it was “Not Active”; in the assay with Botrytis cinerea [9] it was 69.1 µg/mL (≈ 211 µM); in the assay with Alternaria solani [10] it was “Not Active”.
With `Cc1cc(O)no1` [HYMEXAZOL], the inhibition of growth at 100 µg/mL in the assay on Fusarium solani [1] came to 72.5%; in assay [2] it was 49.2%; in the assay on Cytospora [3], 38.9%; with Alternaria solani [7] it was 80.3%; with Botrytis cinerea [8], 100%. For the same compound, the IC50 in [4] (setting [11]) was greater than 100 µg/mL; with Fusarium solani [5] (setting [12]) it was 38.5 µg/mL (≈ 388 µM); in the assay with Cytospora [6] (setting [13]), greater than 100 µg/mL; in the assay with Botrytis cinerea [9], 8.92 µg/mL (≈ 90 µM); in the assay on Alternaria solani [10] (setting [14]), 14 µg/mL (≈ 142 µM).
In the case of `Cn1c(CCl)nc2ccccc21`, the inhibition of growth at 100 µg/mL in the assay on Fusarium solani [1] turned out to be 28.8%; in assay [2], 69.6%; with Cytospora [3], 45.4%; in the assay on Alternaria solani [7], 51.6%; with Botrytis cinerea [8], 91.5%. Moreover, the IC50 in assay [4] (setting [11]) was 80.3 µg/mL (≈ 444 µM); in the assay on Fusarium solani [5] (setting [12]), greater than 150 µg/mL; in the assay with Cytospora [6] (setting [13]) it was greater than 100 µg/mL; with Botrytis cinerea [9], 68.1 µg/mL (≈ 377 µM); with Alternaria solani [10] (setting [14]) it was greater than 100 µg/mL.
With `ClCc1nc2ccccc2[nH]1`, the inhibition of growth at 100 µg/mL in the assay with Fusarium solani [1] is 6.59%; in assay [2], 67.6%; with Cytospora [3] it was less than 5%; in the assay on Alternaria solani [7] it was 25.3%; in the assay on Botrytis cinerea [8] it was 53.2%. Moreover, the IC50 in assay [4] (setting [11]) was 83.1 µg/mL (≈ 499 µM); in the assay with Fusarium solani [5], “Not Active”; in the assay on Cytospora [6], “Not Active”; with Botrytis cinerea [9], greater than 100 µg/mL; in the assay with Alternaria solani [10] (setting [14]), greater than 100 µg/mL.
In the case of `Cn1c(CCl)nc2cc([N+](=O)[O-])ccc21`, the inhibition of growth at 100 µg/mL came to 100% with Fusarium solani [1]; 100% in assay [2]; 100% in the assay on Cytospora [3]; 100% in the assay with Alternaria solani [7]; 48.7% in the assay with Botrytis cinerea [8]. In addition, the IC50 was 28 µg/mL (≈ 124 µM) in assay [4] (setting [11]); 23.3 µg/mL (≈ 103 µM) in the assay with Fusarium solani [5] (setting [12]); 22.5 µg/mL (≈ 99.6 µM) with Cytospora [6] (setting [13]); greater than 100 µg/mL in the assay on Botrytis cinerea [9]; 27.9 µg/mL (≈ 124 µM) with Alternaria solani [10] (setting [14]).
Take `CC(=O)c1cccc(OCc2nc3ccccc3n2C)c1`: the inhibition of growth at 100 µg/mL with Fusarium solani [1] was found to be 78.5%; in [2] it was 41.3%; with Cytospora [3], 55.5%; in the assay on Alternaria solani [7] it was 64.5%; with Botrytis cinerea [8], 82.5%. The IC50 in assay [4] (setting [11]) was greater than 120 µg/mL; in the assay on Fusarium solani [5] (setting [12]) it was 82.4 µg/mL (≈ 294 µM); in the assay on Cytospora [6] (setting [13]), greater than 100 µg/mL; in the assay on Botrytis cinerea [9] it was 68.9 µg/mL (≈ 246 µM); in the assay on Alternaria solani [10] (setting [14]), greater than 100 µg/mL.
Consider `CCOC(=O)c1ccc(OCc2nc3ccccc3n2C)cc1`, for which the inhibition of growth at 100 µg/mL with Fusarium solani [1] amounted to 21.4%; in [2], 71.7%; in the assay with Cytospora [3] it was 79.9%; in the assay on Alternaria solani [7] it was 39.1%; in the assay with Botrytis cinerea [8], 35.9%. For the same compound, the IC50 in assay [4] (setting [11]) was 49.7 µg/mL (≈ 160 µM); in the assay with Fusarium solani [5] (setting [12]), greater than 150 µg/mL; in the assay with Cytospora [6] (setting [13]), 52.6 µg/mL (≈ 169 µM); with Botrytis cinerea [9], greater than 150 µg/mL; in the assay on Alternaria solani [10] (setting [14]), greater than 150 µg/mL.
Turning to `CC(=O)n1c(CCl)nc2ccccc21`, the inhibition of growth at 100 µg/mL in the assay with Fusarium solani [1] was found to be 21.4%; in assay [2], 43.9%; in the assay with Cytospora [3] it was 8.05%; in the assay with Alternaria solani [7], 11.3%; with Botrytis cinerea [8], 57.3%. The IC50 was greater than 150 µg/mL in [4] (setting [11]); “Not Active” in the assay with Fusarium solani [5]; “Not Active” in the assay with Cytospora [6]; 50.9 µg/mL (≈ 244 µM) in the assay with Botrytis cinerea [9]; “Not Active” in the assay with Alternaria solani [10].
As for `Cn1c(COc2ccc(Cl)cc2)nc2ccccc21`, the inhibition of growth at 100 µg/mL with Fusarium solani [1] is 64.1%; in assay [2], 90.5%; in the assay on Cytospora [3], 76.3%; in the assay with Alternaria solani [7], 77.8%; in the assay with Botrytis cinerea [8] it was 83%. For the same compound, the concentration for half-maximal inhibition (IC50) in [4] (setting [11]) was 41.3 µg/mL (≈ 151 µM); with Fusarium solani [5] (setting [12]), greater than 100 µg/mL; in the assay on Cytospora [6] (setting [13]), 24.9 µg/mL (≈ 91.3 µM); with Botrytis cinerea [9], 26.8 µg/mL (≈ 98.3 µM); in the assay with Alternaria solani [10] (setting [14]), 62.5 µg/mL (≈ 229 µM).

The term IC50 denotes the concentration needed to halve the response being measured.
